What was measured:
SK-OV-3 [1] = experiment: Antiproliferative activity against human SKOV3 cells after 48 hrs by sulforhodamine B assay; type: functional, cell-based; conditions: SK-OV-3, 48 h
SF-295 [2] = experiment: Cytotoxicity against human SF295 cells assessed as age growth inhibition at 10 uM after 48 hrs by sulforhodamine B assay; type: functional; conditions: SF-295, 48 h, read-out: GI
HOP-62 [3] = experiment: Cytotoxicity against human HOP62 cells assessed as age growth inhibition at 10 uM after 48 hrs by sulforhodamine B assay; type: functional; conditions: HOP-62, 48 h, read-out: GI
SK-OV-3 [4] = experiment: Cytotoxicity against human SKOV3 cells assessed as age growth inhibition at 100 uM after 48 hrs by sulforhodamine B assay; type: functional; conditions: SK-OV-3, 48 h, read-out: GI
DU-145 [5] = experiment: Cytotoxicity against human DU145 cells assessed as age growth inhibition at 50 uM after 48 hrs by sulforhodamine B assay; type: functional; conditions: DU-145, 48 h, read-out: GI
SF-295 [6] = experiment: Cytotoxicity against human SF295 cells assessed as age growth inhibition at 50 uM after 48 hrs by sulforhodamine B assay; type: functional; conditions: SF-295, 48 h, read-out: GI
SF-295 [7] = experiment: Cytotoxicity against human SF295 cells assessed as age growth inhibition at 100 uM after 48 hrs by sulforhodamine B assay; type: functional; conditions: SF-295, 48 h, read-out: GI
HEp-2 [8] = experiment: Cytotoxicity against human HEP2 cells assessed as age growth inhibition at 50 uM after 48 hrs by sulforhodamine B assay; type: functional; conditions: HEp-2, 48 h, read-out: GI
HCT-15 [9] = experiment: Cytotoxicity against human HCT15 cells assessed as age growth inhibition at 50 uM after 48 hrs by sulforhodamine B assay; type: functional; conditions: HCT-15, 48 h, read-out: GI
COLO 205 [10] = experiment: Antiproliferative activity against human COLO205 cells after 48 hrs by sulforhodamine B assay; type: functional, cell-based; conditions: COLO 205, 48 h
HCT-15 [11] = experiment: Cytotoxicity against human HCT15 cells assessed as age growth inhibition at 100 uM after 48 hrs by sulforhodamine B assay; type: functional; conditions: HCT-15, 48 h, read-out: GI
HEp-2 [12] = experiment: Antiproliferative activity against human HEP2 cells after 48 hrs by sulforhodamine B assay; type: functional, cell-based; conditions: HEp-2, 48 h
HEp-2 [13] = experiment: Cytotoxicity against human HEP2 cells assessed as age growth inhibition at 10 uM after 48 hrs by sulforhodamine B assay; type: functional; conditions: HEp-2, 48 h, read-out: GI
COLO 205 [14] = experiment: Cytotoxicity against human COLO205 cells assessed as age growth inhibition at 100 uM after 48 hrs by sulforhodamine B assay; type: functional; conditions: COLO 205, 48 h, read-out: GI
SK-OV-3 [15] = experiment: Cytotoxicity against human SKOV3 cells assessed as age growth inhibition at 10 uM after 48 hrs by sulforhodamine B assay; type: functional; conditions: SK-OV-3, 48 h, read-out: GI
HOP-62 [16] = experiment: Cytotoxicity against human HOP62 cells assessed as age growth inhibition at 50 uM after 48 hrs by sulforhodamine B assay; type: functional; conditions: HOP-62, 48 h, read-out: GI
A549 [17] = experiment: Cytotoxicity against human A549 cells assessed as age growth inhibition at 10 uM after 48 hrs by sulforhodamine B assay; type: functional; conditions: A549, 48 h, read-out: GI
IGROV-1 [18] = experiment: Cytotoxicity against human IGROV1 cells assessed as age growth inhibition at 100 uM after 48 hrs by sulforhodamine B assay; type: functional; conditions: IGROV-1, 48 h, read-out: GI
COLO 205 [19] = experiment: Cytotoxicity against human COLO205 cells assessed as age growth inhibition at 50 uM after 48 hrs by sulforhodamine B assay; type: functional; conditions: COLO 205, 48 h, read-out: GI
IGROV-1 [20] = experiment: Cytotoxicity against human IGROV1 cells assessed as age growth inhibition at 50 uM after 48 hrs by sulforhodamine B assay; type: functional; conditions: IGROV-1, 48 h, read-out: GI
A549 [21] = experiment: Antiproliferative activity against human A549 cells after 48 hrs by sulforhodamine B assay; type: functional, cell-based; conditions: A549, 48 h
DU-145 [22] = experiment: Cytotoxicity against human DU145 cells assessed as age growth inhibition at 10 uM after 48 hrs by sulforhodamine B assay; type: functional; conditions: DU-145, 48 h, read-out: GI
IGROV-1 [23] = experiment: Cytotoxicity against human IGROV1 cells assessed as age growth inhibition at 10 uM after 48 hrs by sulforhodamine B assay; type: functional; conditions: IGROV-1, 48 h, read-out: GI
IGROV-1 [24] = experiment: Antiproliferative activity against human IGROV1 cells after 48 hrs by sulforhodamine B assay; type: functional, cell-based; conditions: IGROV-1, 48 h
HCT-15 [25] = experiment: Cytotoxicity against human HCT15 cells assessed as age growth inhibition at 10 uM after 48 hrs by sulforhodamine B assay; type: functional; conditions: HCT-15, 48 h, read-out: GI
A549 [26] = experiment: Cytotoxicity against human A549 cells assessed as age growth inhibition at 100 uM after 48 hrs by sulforhodamine B assay; type: functional; conditions: A549, 48 h, read-out: GI
SF-295 [27] = experiment: Antiproliferative activity against human SF295 cells after 48 hrs by sulforhodamine B assay; type: functional, cell-based; conditions: SF-295, 48 h
A549 [28] = experiment: Cytotoxicity against human A549 cells assessed as age growth inhibition at 50 uM after 48 hrs by sulforhodamine B assay; type: functional; conditions: A549, 48 h, read-out: GI
DU-145 [29] = experiment: Antiproliferative activity against human DU145 cells after 48 hrs by sulforhodamine B assay; type: functional, cell-based; conditions: DU-145, 48 h
HOP-62 [30] = experiment: Cytotoxicity against human HOP62 cells assessed as age growth inhibition at 100 uM after 48 hrs by sulforhodamine B assay; type: functional; conditions: HOP-62, 48 h, read-out: GI
HOP-62 [31] = experiment: Antiproliferative activity against human HOP62 cells after 48 hrs by sulforhodamine B assay; type: functional, cell-based; conditions: HOP-62, 48 h
HEp-2 [32] = experiment: Cytotoxicity against human HEP2 cells assessed as age growth inhibition at 100 uM after 48 hrs by sulforhodamine B assay; type: functional; conditions: HEp-2, 48 h, read-out: GI
SK-OV-3 [33] = experiment: Cytotoxicity against human SKOV3 cells assessed as age growth inhibition at 50 uM after 48 hrs by sulforhodamine B assay; type: functional; conditions: SK-OV-3, 48 h, read-out: GI
HCT-15 [34] = experiment: Antiproliferative activity against human HCT15 cells after 48 hrs by sulforhodamine B assay; type: functional, cell-based; conditions: HCT-15, 48 h
COLO 205 [35] = experiment: Cytotoxicity against human COLO205 cells assessed as age growth inhibition at 10 uM after 48 hrs by sulforhodamine B assay; type: functional; conditions: COLO 205, 48 h, read-out: GI
DU-145 [36] = experiment: Cytotoxicity against human DU145 cells assessed as age growth inhibition at 100 uM after 48 hrs by sulforhodamine B assay; type: functional; conditions: DU-145, 48 h, read-out: GI

| Structure (SMILES) | IC50 (SK-OV-3 [1]) | inhibition of growth at 10 µM (SF-295 [2]) | inhibition of growth at 10 µM (HOP-62 [3]) | inhibition of growth at 100 µM (SK-OV-3 [4]) | inhibition of growth at 50 µM (DU-145 [5]) | inhibition of growth at 50 µM (SF-295 [6]) | inhibition of growth at 100 µM (SF-295 [7]) | inhibition of growth at 50 µM (HEp-2 [8]) | inhibition of growth at 50 µM (HCT-15 [9]) | IC50 (COLO 205 [10]) | inhibition of growth at 100 µM (HCT-15 [11]) | IC50 (HEp-2 [12]) | inhibition of growth at 10 µM (HEp-2 [13]) | inhibition of growth at 100 µM (COLO 205 [14]) | inhibition of growth at 10 µM (SK-OV-3 [15]) | inhibition of growth at 10 µM (A549 [17]) | inhibition of growth at 10 µM (DU-145 [22]) | inhibition of growth at 10 µM (IGROV-1 [23]) | inhibition of growth at 10 µM (HCT-15 [25]) | inhibition of growth at 10 µM (COLO 205 [35]) | also measured |
| --- | --- | --- | --- | --- | --- | --- | --- | --- | --- | --- | --- | --- | --- | --- | --- | --- | --- | --- | --- | --- | --- |
| CC1(C)CCC[C@@]2(C)C1=C[C@H]1C(=O)O[C@H](c3ccccc3)[C@H]12 | 86.5 µM | 15% | 16% | 57% | 32% | 18% | 22% | 18% | 46% | 63.6 µM | 56% | > 100 µM | 6% | 79% | 20% | 11% | 15% | 0% | 9% | 14% | inhibition of growth at 50 µM (HOP-62 [16]): 21%; inhibition of growth at 100 µM (IGROV-1 [18]): 63%; inhibition of growth at 50 µM (COLO 205 [19]): 34%; inhibition of growth at 50 µM (IGROV-1 [20]): 22%; IC50 (A549 [21]): 97.6 µM; IC50 (IGROV-1 [24]): 83.7 µM; inhibition of growth at 100 µM (A549 [26]): 51%; IC50 (SF-295 [27]): > 100 µM; inhibition of growth at 50 µM (A549 [28]): 29%; IC50 (DU-145 [29]): 87.6 µM; inhibition of growth at 100 µM (HOP-62 [30]): 28%; IC50 (HOP-62 [31]): > 100 µM; inhibition of growth at 100 µM (HEp-2 [32]): 37%; inhibition of growth at 50 µM (SK-OV-3 [33]): 30%; IC50 (HCT-15 [34]): 75.3 µM; inhibition of growth at 100 µM (DU-145 [36]): 56% |
| CC1(C)CCC[C@@]2(C)C1=C[C@H]1C(=O)O[C@H](c3ccco3)[C@H]12 | 91 µM | 0% | 2% | 57% | 37% | 17% | 38% | 19% | 50% | 79.5 µM | 56% | 98.8 µM | 8% | 64% | 6% | 19% | 17% | 1% | 14% | 16% | inhibition of growth at 50 µM (HOP-62 [16]): 8%; inhibition of growth at 100 µM (IGROV-1 [18]): 67%; inhibition of growth at 50 µM (COLO 205 [19]): 20%; inhibition of growth at 50 µM (IGROV-1 [20]): 24%; IC50 (A549 [21]): > 100 µM; IC50 (IGROV-1 [24]): 79.2 µM; inhibition of growth at 100 µM (A549 [26]): 25%; IC50 (SF-295 [27]): > 100 µM; inhibition of growth at 50 µM (A549 [28]): 20%; IC50 (DU-145 [29]): 63.3 µM; inhibition of growth at 100 µM (HOP-62 [30]): 46%; IC50 (HOP-62 [31]): > 100 µM; inhibition of growth at 100 µM (HEp-2 [32]): 52%; inhibition of growth at 50 µM (SK-OV-3 [33]): 9%; IC50 (HCT-15 [34]): 50 µM; inhibition of growth at 100 µM (DU-145 [36]): 76% |
| Cc1ccc([C@H]2OC(=O)[C@@H]3C=C4C(C)(C)CCC[C@]4(C)[C@H]23)cc1 | > 100 µM | 19% | 2% | 30% | 10% | 20% | 21% | 25% | 44% | > 100 µM | 55% | > 100 µM | 9% | 34% | 19% | 13% | 6% | 0% | 11% | 10% | inhibition of growth at 50 µM (HOP-62 [16]): 13%; inhibition of growth at 100 µM (IGROV-1 [18]): 40%; inhibition of growth at 50 µM (COLO 205 [19]): 22%; inhibition of growth at 50 µM (IGROV-1 [20]): 29%; IC50 (A549 [21]): > 100 µM; IC50 (IGROV-1 [24]): > 100 µM; inhibition of growth at 100 µM (A549 [26]): 42%; IC50 (SF-295 [27]): > 100 µM; inhibition of growth at 50 µM (A549 [28]): 29%; IC50 (DU-145 [29]): > 100 µM; inhibition of growth at 100 µM (HOP-62 [30]): 21%; IC50 (HOP-62 [31]): > 100 µM; inhibition of growth at 100 µM (HEp-2 [32]): 27%; inhibition of growth at 50 µM (SK-OV-3 [33]): 29%; IC50 (HCT-15 [34]): 78 µM; inhibition of growth at 100 µM (DU-145 [36]): 35% |
| COc1cccc2c1C(=O)c1c(O)c3c(c(O)c1C2=O)C[C@@](O)(C(=O)CO)C[C@@H]3O[C@H]1C[C@H](N)[C@H](O)[C@H](C)O1 [DOXORUBICIN] | – | 54% | 69% | – | – | – | – | – | – | – | – | – | – | – | – | 47% | 64% | – | 54% | – | – |
| CO[C@@]12[C@H](COC(N)=O)C3=C(C(=O)C(C)=C(N)C3=O)N1C[C@@H]1N[C@@H]12 [MITOMYCIN] | – | – | – | – | – | – | – | – | – | – | – | – | – | – | – | 55% | 63% | – | – | – | – |
| CC(=O)O[C@H]1C(=O)[C@@]2(C)[C@H]([C@H](OC(=O)c3ccccc3)[C@]3(O)C[C@H](OC(=O)[C@H](O)[C@@H](NC(=O)c4ccccc4)c4ccccc4)C(C)=C1C3(C)C)[C@]1(OC(C)=O)CO[C@@H]1C[C@@H]2O [PACLITAXEL] | – | 22% | 26% | – | – | – | – | – | – | – | – | – | 29% | – | – | 40% | 52% | 15% | 40% | 9% | – |

From ChEMBL document CHEMBL1140040, “Synthesis and cytotoxic activity of some novel polycyclic gamma-butyrolactones” (Bioorg Med Chem Lett, 2008)
